Key:
R6/2 mice [1] = assay: Open field test in R6/2 mice; format: in vivo, mouse; conditions: 12 weeks of age
Procedure: Study Summary—A total of 46 male R6/2 mice and 15 male wild-type littermate control mice (WT) were used in the study. The mice were genotyped and the R6/2 mice were divided into different treatment groups based on their pre-treatment body weight. The treatment with Compound (Ia) (0.5 or 5 mg/kg; 10 ml/kg, intraperitoneally (i.p.), QD) or Vehicle (10 ml/kg, i.p., QD) was started at 4 weeks of age. Body weights were measured before the treatment onset and continued twice a week until the end of the study. Fine motor kinematic analysis and rotarod test were performed at 10 weeks of age and the open field activity and clasping behavior were measured at 12 weeks of age for all mice. At 8 and 12 weeks of age the glucose uptake was measured by ^18F-FDG PET and the striatal metabolites were measured using MR spectroscopy for 9-10 mice per group. […] The blood samples were used to prepare peripheral blood mononuclear cells (PBMCs) on which the flow cytometry/luminescence analysis was performed for following assays: mitochondrial reactive oxygen species (ROS) (MitoSox), and ATP levels (Cell TiterGlow). […]
Open Field Test—At 12 weeks of age all mice were subjected to open field test. […] Mice were placed in the center of the chamber and their behavior was recorded for 30 min in 5-min bins. […]

R6/2 mice [2] = assay: 18F-FDG PET brain glucose uptake in R6/2 mice; format: in vivo, mouse
Procedure: Study Summary—A total of 46 male R6/2 mice and 15 male wild-type littermate control mice (WT) were used in the study. The mice were genotyped and the R6/2 mice were divided into different treatment groups based on their pre-treatment body weight. The treatment with Compound (Ia) (0.5 or 5 mg/kg; 10 ml/kg, intraperitoneally (i.p.), QD) or Vehicle (10 ml/kg, i.p., QD) was started at 4 weeks of age. Body weights were measured before the treatment onset and continued twice a week until the end of the study. Fine motor kinematic analysis and rotarod test were performed at 10 weeks of age and the open field activity and clasping behavior were measured at 12 weeks of age for all mice. At 8 and 12 weeks of age the glucose uptake was measured by ^18F-FDG PET and the striatal metabolites were measured using MR spectroscopy for 9-10 mice per group. At 13 weeks of age 9-10 mice per group were subjected to tissue sample collection, and the brain and blood samples were collected. The blood samples were used to prepare peripheral blood mononuclear cells (PBMCs) on which the flow cytometry/luminescence analysis was performed for following assays: mitochondrial reactive oxygen species (ROS) (MitoSox), and ATP levels (Cell TiterGlow).
^18F-FDG-PET Analysis—At 8 and 12 weeks of age, 9 mice per group were fasted overnight (water allowed ad libitum) to standardize the blood glucose level. […]

Compound: Cc1cc(O)cc(C)c1C[C@H](NC(=O)[C@H](N)CCCNC(=N)N)C(=O)N[C@@H](CCCCN)c1nc(Cc2ccccc2)no1.Cl.Cl [Compound (Ia), (R)-2-amino-N—((S)-1-(((S)-5-amino-1-(3-benzyl-1,2,4-oxadiazol-5-yl)pentyl)amino)-3-(4-hydroxy-2,6-dimethylphenyl)-1-oxopropan-2-yl)-5-guanidinopentanamide]
- total distance traveled in the open field compared to vehicle treated R6/2 mice (R6/2 mice [1]; 5 mg/kg i.p. QD, p<0.05, One-way ANOVA): traveled longer total distance
- total rearing frequency in the open field, between R6/2 groups (R6/2 mice [1]; 0.5 or 5 mg/kg i.p. QD, p>0.05, One-way ANOVA): no significant differences
- 18F-FDG uptake (radioactivity) in olfactory bulb compared to vehicle treated R6/2 mice (R6/2 mice [2]; 5 mg/kg i.p. QD, 12 weeks of age, p<0.05, Mixed-effects model (REML)): statistically significantly higher radioactivity
- 18F-FDG uptake in various brain areas (R6/2 mice [2]; i.p. QD, trend, not statistically significant except olfactory bulb): increased

Source: US20250319073A1, “COMPOSITIONS AND METHODS FOR THE TREATMENT OF HUNTINGTON’S DISEASE AND HTT PROTEINOPATHIES” (priority 2022, published 2025)
